Results from patent publication US7067158B2, “Preparation for the relief of disease” (AKL Technologies Limited, priority 2001, dated 2006).

How the values were obtained:
[1] = tested on: Platelet Activating Factor (PAF); settings: cited from earlier work
[2] = Treatment of laminitis in horses; format: in vivo; settings: horse L: on Bute for two months
Method: (§1) The loading dose is from three to ten days according to individual perceived clinical need. After the loading dose, the maintenance dose follows for a minimum (normally) of 30 days continuing as needed. The doses are scaled according to individual size/body weight. The dose was added as a powder in the animals' feed.
(§2) JMJ, FRA and D-Tox are available from Nutrilabs of Penrhos, Raglan, Monmouthshire. They are used to make the following Example compositions according to the invention, which were used in Examples A to AA below. The following gives a daily dose for a 450 kg horse. With any of the following Example Compositions during ANY acute phase, a loading dose of 3 times the daily dose may be used to assist a rapid return to ‘well being’.

[3] = Treatment of COPD in horses; format: in vivo; settings: horse K: COPD
Method: as §1, §2

[4] = tested on: platelets; experiment: Born aggregometry: ADP-induced platelet aggregation in platelet rich plasma (PRP); format: cell-based, human; settings: ADP 4×10^−6 M
Method: Extracts of components were prepared by stirring macerated samples overnight in methanol. The mixtures were centrifuged, the supernatants drawn off and dried to remove all traces of the extracting solvent. Resulting solids were re-suspended in normal saline (0.9% w/v NaCl) at saturated concentrations.
Extracts 2, 5 and 8 were reconstituted in 0.9% saline at saturated concentrations.
Citrated whole blood, from healthy volunteers, was spun at 900 rpm for 20 minutes to obtain platelet rich plasma (PRP). Born aggregometry was then carried out within 1 hour of blood being taken. Extracts 2, 5, and 8 were added to 450 μl PRP either singly (6 μl), or in combination with one other extract (3 μl each), or all the extracts in combination (2 μl each). PRP was then stimulated with ADP (Sigma) 4×10^−6 M. 6 μl of saline was added to PRP for the control. Aggregation was measured in a PAP4C aggregometer (BioData Corp. Horsham USA) over 10 minutes.
The dose of agonist was chosen to give slightly sub-optimal aggregation thus showing the maximum effect of any inhibition. Doses of extracts were chosen to show the effect on platelets when used alone and any added and/or synergistic effect of using combinations. All data is recorded as the maximum aggregation.

CC1C(=O)OC2C(O)C34C5CC(C(C)(C)C)C36C(OC(=O)C6O)OC4(C(=O)O5)C12O (stereo not shown) [ginkgolide B]
PAF inhibiting activity [1]: potent

CCCCC1C(=O)N(c2ccccc2)N(c2ccccc2)C1=O [Bute]
adverse reaction [2]: ulcers around the mouth and sores on the muzzle

CC(C)(C)NCC(O)c1cc(Cl)c(N)c(Cl)c1 (stereo not shown) [Ventipulmin, clenbuterol]
clinical outcome (owner report) [3]: had no effect

COc1cc(C(C)=O)ccc1O [Extract 2, Apocynin]
effect on platelet aggregation in response to ADP (in words) [4]: reduced platelet aggregation in response to ADP
